Assay results from ChEMBL document CHEMBL1201862, “PubChem BioAssay data set” (2004).
Each block holds one molecule with its values, some of them ahead of it. Active and inactive are the calls of the source.

What was measured:
[1] = system: HEK293; test: inhibition of NOD1-driven NF-kB reporter – cell-based, luminescence, uHTS, primary screen (AID 1578); type: functional; conditions: Homo sapiens
[2] = system: HEK293; test: cells; type: functional, cell-based; conditions: Homo sapiens
[3] = system: HEK293; test: cells; type: functional, cell-based; conditions: Homo sapiens; remark: listed apart in the source
[4] = system: HEK293; test: NOD2 signaling inhibitors in MDP-stimulated cells, cell-based, uHTS, luminescence (AID 2001); type: functional; conditions: Homo sapiens
[5] = Luminescence Cell-Based Dose Retest to Confirm Inhibitors of Cancer Stem Cells. [Related pubchem assays (depositor defined):AID2717, AID2721]; type: functional; conditions: Homo sapiens
[6] = molecular target: T1, CAAX prenyl protease 2 (Saccharomyces cerevisiae S288c, UniProt Q03530); type: biochemical
T1 sequence (Q03530 whole entry): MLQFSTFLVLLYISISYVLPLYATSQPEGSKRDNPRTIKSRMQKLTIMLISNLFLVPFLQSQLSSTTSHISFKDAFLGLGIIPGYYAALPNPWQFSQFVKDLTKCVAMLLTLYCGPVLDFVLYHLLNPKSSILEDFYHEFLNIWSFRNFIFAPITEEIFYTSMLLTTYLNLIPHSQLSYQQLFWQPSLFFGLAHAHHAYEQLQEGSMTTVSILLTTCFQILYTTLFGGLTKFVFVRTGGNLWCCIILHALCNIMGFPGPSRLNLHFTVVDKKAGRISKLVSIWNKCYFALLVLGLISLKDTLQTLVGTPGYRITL

[7] = toxicity toward cultured mammalian cells – cell-based, plate reader, cherry-pick samples, cytotoxicity control, dose response (AID 504397); type: functional
[8] = molecular target: T1, CAAX prenyl protease 2; test: inhibition of Rce1p peptide cleavage – biochemical, plate reader, dry powder retest, dose response (AID 588851)
[9] = system: INS1; test: INS-1E survival protection against cytokine death – cell-based, luminescence, retest, dose response (AID 449756); type: functional; conditions: Rattus norvegicus;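 note: cell death triggered by IL-1 beta plus TNF-alpha plus IFN-gamma mixture; protective hits raise ATP signal compared with cytokine alone wells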
[10] = molecular target: Disintegrin and metalloproteinase domain-containing protein 17 (Homo sapiens, UniProt P78536); test: exosite inhibitors of ADAM17, dose response, biochemical (AID 743260)
Chain of Disintegrin and metalloproteinase domain-containing protein 17 (P78536 whole entry, the tested form may be a part): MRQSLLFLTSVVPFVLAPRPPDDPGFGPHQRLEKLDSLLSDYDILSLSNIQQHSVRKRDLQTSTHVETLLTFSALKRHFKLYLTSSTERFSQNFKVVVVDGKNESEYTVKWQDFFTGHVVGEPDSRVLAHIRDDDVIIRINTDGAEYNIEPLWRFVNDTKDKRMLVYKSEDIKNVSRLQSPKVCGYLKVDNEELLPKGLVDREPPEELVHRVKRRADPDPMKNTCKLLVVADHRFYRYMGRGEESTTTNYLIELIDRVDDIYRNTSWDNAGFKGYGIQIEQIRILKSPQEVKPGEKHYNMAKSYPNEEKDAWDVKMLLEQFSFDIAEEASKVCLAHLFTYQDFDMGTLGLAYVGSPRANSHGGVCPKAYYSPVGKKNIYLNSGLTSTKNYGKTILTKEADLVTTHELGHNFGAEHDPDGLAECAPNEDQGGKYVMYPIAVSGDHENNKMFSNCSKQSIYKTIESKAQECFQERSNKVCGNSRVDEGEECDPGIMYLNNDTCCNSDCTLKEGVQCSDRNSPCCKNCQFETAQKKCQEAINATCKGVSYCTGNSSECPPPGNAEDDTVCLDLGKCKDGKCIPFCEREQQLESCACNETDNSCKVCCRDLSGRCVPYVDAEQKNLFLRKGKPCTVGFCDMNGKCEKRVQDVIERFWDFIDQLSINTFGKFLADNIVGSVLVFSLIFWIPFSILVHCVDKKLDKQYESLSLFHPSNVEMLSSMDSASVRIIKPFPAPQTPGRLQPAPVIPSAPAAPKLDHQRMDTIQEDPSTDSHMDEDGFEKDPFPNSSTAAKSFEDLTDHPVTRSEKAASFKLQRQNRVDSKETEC

[11] = inhibition of ADAM10 peptide cleavage – biochemical, FRET peptide substrate, recombinant human ADAM10, selectivity assay for ADAM17 exosite inhibitor project, dose response (AID 743259);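 note: ADAM10 enzyme cleaving a FRET peptide substrate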
[12] = molecular target: Cytochrome P450 3A4 (Homo sapiens, UniProt P08684);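 note: CYP3A4 tested as one member of a cytochrome P450 panel screen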
Chain of Cytochrome P450 3A4 (P08684 whole entry): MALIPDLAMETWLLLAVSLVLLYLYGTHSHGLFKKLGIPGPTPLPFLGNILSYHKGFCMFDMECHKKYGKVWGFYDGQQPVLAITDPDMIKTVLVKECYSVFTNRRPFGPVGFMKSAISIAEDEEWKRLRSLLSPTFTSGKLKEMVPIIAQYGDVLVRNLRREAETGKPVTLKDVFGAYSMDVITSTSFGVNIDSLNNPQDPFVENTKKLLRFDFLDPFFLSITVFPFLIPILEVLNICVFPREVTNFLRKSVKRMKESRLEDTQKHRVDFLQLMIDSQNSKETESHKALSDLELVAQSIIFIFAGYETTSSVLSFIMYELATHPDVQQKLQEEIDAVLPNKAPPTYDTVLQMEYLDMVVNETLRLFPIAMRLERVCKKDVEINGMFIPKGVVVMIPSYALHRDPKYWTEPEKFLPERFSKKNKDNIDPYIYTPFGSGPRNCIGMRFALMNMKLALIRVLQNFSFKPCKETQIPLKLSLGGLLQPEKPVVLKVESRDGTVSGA

[13] = molecular target: Melanocortin receptor 4 (Homo sapiens, UniProt P32245); test: inhibitors of MC4R cAMP signaling – cell-based, TR-FRET, biased antagonists, dose response (AID 602298); type: functional;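 note: antagonist potency against agonist-stimulated cAMP production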
Chain of Melanocortin receptor 4 (P32245 whole entry): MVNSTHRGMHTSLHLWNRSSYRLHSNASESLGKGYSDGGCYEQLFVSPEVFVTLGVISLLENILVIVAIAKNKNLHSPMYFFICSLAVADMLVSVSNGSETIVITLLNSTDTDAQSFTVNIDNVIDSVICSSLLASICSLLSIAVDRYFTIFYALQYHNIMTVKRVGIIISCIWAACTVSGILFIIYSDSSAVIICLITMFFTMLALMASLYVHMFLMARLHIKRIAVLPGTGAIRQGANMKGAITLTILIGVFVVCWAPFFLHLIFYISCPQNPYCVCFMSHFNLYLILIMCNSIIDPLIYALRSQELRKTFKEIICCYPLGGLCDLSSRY

[14] = cAMP pathway inhibition in counterscreen cell line – TR-FRET cAMP detection, counter-screen for MC4R biased antagonist project, dose response (AID 602305); type: functional, cell-based;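 note: U2OS cells stimulated with forskolin near its EC80 as the cAMP inducer; potency is for inhibition of forskolin-stimulated cAMP signaling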
[15] = molecular target: Protein disulfide-isomerase (Homo sapiens, UniProt P07237); test: inhibition of PDI-driven insulin aggregation – biochemical, turbidity, absorbance, cherry-picked samples, dose response (AID 602350); type: functional
Chain of Protein disulfide-isomerase (P07237 whole entry): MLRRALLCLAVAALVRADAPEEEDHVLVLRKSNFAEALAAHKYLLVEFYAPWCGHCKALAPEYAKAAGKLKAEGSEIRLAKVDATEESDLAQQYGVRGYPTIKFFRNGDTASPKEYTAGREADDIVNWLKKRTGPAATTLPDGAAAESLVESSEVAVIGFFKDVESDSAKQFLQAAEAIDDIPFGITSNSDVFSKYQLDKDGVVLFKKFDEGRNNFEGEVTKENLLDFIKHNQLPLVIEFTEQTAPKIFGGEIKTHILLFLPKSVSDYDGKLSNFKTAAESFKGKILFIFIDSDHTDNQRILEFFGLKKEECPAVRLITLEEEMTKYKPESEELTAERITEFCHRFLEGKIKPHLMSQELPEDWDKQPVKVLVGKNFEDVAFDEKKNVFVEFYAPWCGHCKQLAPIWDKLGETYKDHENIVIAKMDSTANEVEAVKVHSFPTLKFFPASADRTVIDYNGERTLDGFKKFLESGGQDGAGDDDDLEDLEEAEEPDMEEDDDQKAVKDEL

[16] = molecular target: T2, High affinity choline transporter 1 (Homo sapiens, UniProt Q9GZV3); test: human choline transporter potentiators, potency – cell-based, 10-point CRC, membrane potential dye, dose response (AID 602376); type: functional
T2 sequence (Q9GZV3 whole entry): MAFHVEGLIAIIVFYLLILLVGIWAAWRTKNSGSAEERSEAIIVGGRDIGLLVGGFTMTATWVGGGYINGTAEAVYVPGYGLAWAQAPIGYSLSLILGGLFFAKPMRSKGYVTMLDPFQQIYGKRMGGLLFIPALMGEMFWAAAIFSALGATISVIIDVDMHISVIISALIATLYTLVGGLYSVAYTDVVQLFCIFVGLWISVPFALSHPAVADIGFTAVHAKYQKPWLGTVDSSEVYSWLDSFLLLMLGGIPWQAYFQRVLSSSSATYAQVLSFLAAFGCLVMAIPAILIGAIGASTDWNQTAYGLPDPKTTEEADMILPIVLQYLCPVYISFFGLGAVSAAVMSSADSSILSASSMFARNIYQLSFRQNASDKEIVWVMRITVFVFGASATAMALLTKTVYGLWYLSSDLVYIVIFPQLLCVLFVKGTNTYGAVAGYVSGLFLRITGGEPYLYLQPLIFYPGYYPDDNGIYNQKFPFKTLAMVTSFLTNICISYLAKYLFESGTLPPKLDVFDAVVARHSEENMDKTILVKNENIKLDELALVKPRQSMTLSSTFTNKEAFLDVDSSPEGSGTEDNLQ

[17] = molecular target: Aurora kinase A (Homo sapiens, UniProt O14965); type: functional;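 note: value from the Navigating the Kinome kinase panel profiling, panel entry STK6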
Chain of Aurora kinase A (O14965 whole entry): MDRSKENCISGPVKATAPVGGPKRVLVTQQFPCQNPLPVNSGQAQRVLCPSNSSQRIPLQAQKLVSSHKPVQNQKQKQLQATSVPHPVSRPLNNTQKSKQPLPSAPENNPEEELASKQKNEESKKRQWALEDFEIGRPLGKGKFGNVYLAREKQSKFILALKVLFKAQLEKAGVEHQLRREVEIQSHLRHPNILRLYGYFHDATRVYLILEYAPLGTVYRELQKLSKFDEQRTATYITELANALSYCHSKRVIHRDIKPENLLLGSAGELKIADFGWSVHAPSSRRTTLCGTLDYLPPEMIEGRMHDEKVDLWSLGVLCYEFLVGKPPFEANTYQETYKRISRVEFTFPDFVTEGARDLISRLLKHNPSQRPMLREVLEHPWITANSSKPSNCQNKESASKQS

[18] = molecular target: Vascular endothelial growth factor receptor 2 (Homo sapiens, UniProt P35968); type: functional
[19] = molecular target: Aurora kinase B (Homo sapiens, UniProt Q96GD4); type: functional
Chain of Aurora kinase B (Q96GD4 whole entry): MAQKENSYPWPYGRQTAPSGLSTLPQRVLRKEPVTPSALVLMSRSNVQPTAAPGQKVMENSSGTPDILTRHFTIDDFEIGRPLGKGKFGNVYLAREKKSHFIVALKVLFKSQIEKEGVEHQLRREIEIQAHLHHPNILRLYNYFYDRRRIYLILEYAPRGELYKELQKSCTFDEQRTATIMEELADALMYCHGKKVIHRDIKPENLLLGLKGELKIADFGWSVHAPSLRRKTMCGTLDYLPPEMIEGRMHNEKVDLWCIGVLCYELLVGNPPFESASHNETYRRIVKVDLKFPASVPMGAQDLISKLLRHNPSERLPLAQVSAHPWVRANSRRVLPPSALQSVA

[20] = molecular target: Cyclin-dependent kinase 19 (Homo sapiens, UniProt Q9BWU1); test: Navigating the Kinome. Panel member name: CDC2L6; type: functional
Chain of Cyclin-dependent kinase 19 (Q9BWU1 whole entry): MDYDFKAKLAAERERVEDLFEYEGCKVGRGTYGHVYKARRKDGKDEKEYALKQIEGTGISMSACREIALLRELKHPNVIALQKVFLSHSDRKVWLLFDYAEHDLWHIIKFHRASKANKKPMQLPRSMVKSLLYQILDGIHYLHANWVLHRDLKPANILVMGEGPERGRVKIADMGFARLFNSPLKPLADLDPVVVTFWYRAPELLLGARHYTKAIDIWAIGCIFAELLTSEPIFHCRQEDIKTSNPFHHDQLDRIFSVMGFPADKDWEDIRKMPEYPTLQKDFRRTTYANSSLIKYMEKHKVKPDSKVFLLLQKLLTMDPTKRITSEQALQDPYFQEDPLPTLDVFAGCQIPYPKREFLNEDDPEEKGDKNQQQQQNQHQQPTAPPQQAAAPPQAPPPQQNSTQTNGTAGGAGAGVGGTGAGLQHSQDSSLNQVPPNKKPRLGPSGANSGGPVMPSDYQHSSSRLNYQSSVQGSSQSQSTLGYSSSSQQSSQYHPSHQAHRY

[21] = molecular target: Inhibitor of nuclear factor kappa-B kinase subunit epsilon (Homo sapiens, UniProt Q14164); test: Navigating the Kinome. Panel member name: IKBKE; type: functional
Chain of Inhibitor of nuclear factor kappa-B kinase subunit epsilon (Q14164 whole entry): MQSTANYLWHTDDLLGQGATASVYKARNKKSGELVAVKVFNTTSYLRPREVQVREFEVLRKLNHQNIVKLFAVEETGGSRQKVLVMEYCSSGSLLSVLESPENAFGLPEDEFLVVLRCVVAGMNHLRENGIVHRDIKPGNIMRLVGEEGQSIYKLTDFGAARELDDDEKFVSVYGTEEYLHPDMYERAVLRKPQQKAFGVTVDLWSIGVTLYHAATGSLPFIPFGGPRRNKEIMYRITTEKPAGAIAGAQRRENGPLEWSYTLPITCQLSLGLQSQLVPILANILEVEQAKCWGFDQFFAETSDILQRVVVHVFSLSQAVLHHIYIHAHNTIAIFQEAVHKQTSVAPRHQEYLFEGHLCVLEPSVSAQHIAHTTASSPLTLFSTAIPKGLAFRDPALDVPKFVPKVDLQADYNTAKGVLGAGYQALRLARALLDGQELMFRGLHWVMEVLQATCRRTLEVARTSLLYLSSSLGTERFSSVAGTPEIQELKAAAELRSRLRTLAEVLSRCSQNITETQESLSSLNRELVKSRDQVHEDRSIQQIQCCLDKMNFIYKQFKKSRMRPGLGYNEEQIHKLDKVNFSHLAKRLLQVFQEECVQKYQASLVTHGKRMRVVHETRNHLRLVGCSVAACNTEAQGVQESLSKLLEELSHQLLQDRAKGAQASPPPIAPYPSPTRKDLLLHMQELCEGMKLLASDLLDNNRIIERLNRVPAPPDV

[22] = molecular target: Melanin-concentrating hormone receptor 1 (Homo sapiens, UniProt Q99705); test: Late-stage fluorescence-based counterscreen for antagonists of the G-protein coupled receptor 7 (GPR7): cell-based dose response assay to identify antagonists of the melanin-concentrating hormone receptor 1 (MCHR1) Set 6.; type: functional
[23] = molecular target: Neuropeptides B/W receptor type 1 (Homo sapiens, UniProt P48145); test: human NPBW1 receptor blockade, IC50 – cell-based, fluorescence, dose response, set 6, late-stage follow-up (AID 588583); type: functional
[24] = molecular target: T3, DNA dC->dU-editing enzyme APOBEC-3A (Homo sapiens, UniProt P31941); test: SAR analysis of small molecule inhibitors of APOBEC3A DNA Deaminase via a fluorescence-based single-stranded DNA deaminase assay - Set 2.; type: functional; conditions: read-out: IC50_Mean
T3 sequence (P31941 whole entry): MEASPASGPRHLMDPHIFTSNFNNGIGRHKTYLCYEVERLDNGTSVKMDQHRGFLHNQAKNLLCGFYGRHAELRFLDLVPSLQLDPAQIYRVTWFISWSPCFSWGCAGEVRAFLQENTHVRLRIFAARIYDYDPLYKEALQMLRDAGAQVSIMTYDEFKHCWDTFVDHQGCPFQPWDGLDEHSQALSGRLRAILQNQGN

[25] = molecular target: T4, DNA dC->dU-editing enzyme APOBEC-3G (Homo sapiens, UniProt Q9HC16); test: SAR analysis of small molecule inhibitors of APOBEC3G DNA Deaminase via a fluorescence-based single-stranded DNA deaminase assay - Set 2.; type: functional; conditions: read-out: IC50_Mean
T4 sequence (Q9HC16 whole entry): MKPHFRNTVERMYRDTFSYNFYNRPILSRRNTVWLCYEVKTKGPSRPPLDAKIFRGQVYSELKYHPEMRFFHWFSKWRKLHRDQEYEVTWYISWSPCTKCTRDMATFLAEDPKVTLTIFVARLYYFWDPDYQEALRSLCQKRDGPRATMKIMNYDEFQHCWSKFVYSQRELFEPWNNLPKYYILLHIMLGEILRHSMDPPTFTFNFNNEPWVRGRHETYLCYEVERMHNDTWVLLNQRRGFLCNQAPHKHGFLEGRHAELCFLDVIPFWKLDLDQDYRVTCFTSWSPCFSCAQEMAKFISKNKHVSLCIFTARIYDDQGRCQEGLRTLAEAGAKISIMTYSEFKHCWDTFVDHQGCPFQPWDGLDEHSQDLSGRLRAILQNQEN

[26] = molecular target: T4, DNA dC->dU-editing enzyme APOBEC-3G; test: inhibition of APOBEC3G ssDNA deamination – biochemical, fluorescence, single-stranded DNA substrate, SAR follow-up (AID 602136); type: functional; conditions: read-out: IC50_Mean
[27] = molecular target: T3, DNA dC->dU-editing enzyme APOBEC-3A; test: SAR analysis of small molecule inhibitors of APOBEC3A DNA Deaminase via a fluorescence-based single-stranded DNA deaminase assay.; type: functional; conditions: read-out: IC50_Mean

Structure (SMILES): Cc1cc(C)n(Cc2ccc(NC(=O)c3ccc(COc4ccccc4Br)cc3)cc2)n1
- EC50 [1]: 8.42 µM (active)
- IC50 [2]: 4.34 µM (active)
- IC50 [3]: 13.2 µM (active)
- IC50 [4]: 4.26 µM (active)
- AC50 [5]: 1.56 µM (active)
- AC50 [6]: 1.08 µM (active)
- AC50 [7]: 48.8 µM (active)
- AC50 [8]: 9.4 µM (active)
- AC50 [9]: 8.58 µM (active)
- IC50 [10]: > 69.5 µM (inactive)
- IC50 [11]: > 69.5 µM (inactive)
- AC50 [12]: 14.1 µM (inconclusive)

Structure (SMILES): Cc1nc2c(sc3nc(N4CCOCC4)c4c(c32)CC(C)(C)OC4)c(-c2ccccc2)c1C(=O)O
- AC50 [5]: 0.324 µM (active)
- IC50 [13]: 15.5 µM (inactive)
- IC50 [14]: > 64.6 µM (inactive)

- AC50 [15]: 19.5 µM (active)
Structure (SMILES): CN(C)S(=O)(=O)c1ccc(Cl)c(NC(=O)CSc2nnnn2-c2ccc(O)cc2)c1

Structure (SMILES): CCOC(=O)c1sc(NC(=O)Cc2ccccc2OC)nc1C
- EC50 [16]: 22.4 µM (active)

- Ki [17]: > 2 µM (inactive)
- Ki [18]: > 5.01 µM (inactive)
- Ki [19]: 0.0794 µM (active)
Structure (SMILES): Cn1c(SC(C(=O)O)c2ccccc2)nc2ccccc2c1=O (stereo not drawn)

- Ki [20]: > 100 µM (inactive)
- Ki [21]: 1 µM (active)
Structure (SMILES): Nc1noc2c(CN3CCOCC3)ccc(-c3ccc(NC(=O)Nc4cc(C(F)(F)F)ccc4F)cc3)c12

- IC50 [22]: 0.915 µM (active)
- IC50 [23]: 0.915 µM (active)
Structure (SMILES): N#CC(C(=O)N1CCCC1)c1c(Cl)cnn(Cc2cccc3ccccc23)c1=O (stereo not drawn)

Structure (SMILES): Cc1cc(C)n2nc(C(=O)NCc3ccccc3)c(Br)c2n1
- IC50 [24]: 76.8 µM (inactive)
- IC50 [25]: > 99 µM (inactive)

Structure (SMILES): COc1ccc(-c2nnc(SC(C)C(=O)Nc3nc(-c4ccc(F)c(F)c4)cs3)[nH]2)cc1 (stereo not drawn)
- IC50 [26]: 40.5 µM (inactive)
- IC50 [27]: > 99 µM (inactive)
